Experimental data as given in ChEMBL document CHEMBL3612048, “Cytotoxic triterpenoid glycosides (saikosaponins) from the roots of Bupleurum chinense” (Bioorg Med Chem Lett, 2015).
pIC50: −log10 of the molar value.

Key:
[1] = tested on: HepG2; assay: Cytotoxicity against human HepG2 cells assessed as induction of cell death incubated for 2 days by MTT assay; format: functional, cell-based; details: HepG2, 48 h
[2] = tested on: A549; assay: Cytotoxicity against human A549 cells assessed as induction of cell death incubated for 2 days by MTT assay; format: functional, cell-based; details: A549, 48 h
[3] = Cytotoxicity against human Hep3B cells assessed as induction of cell death incubated for 2 days by MTT assay; format: functional, cell-based, Hep 3B2; details: 48 h
[4] = tested on: MCF7; assay: Cytotoxicity against human MCF7 cells assessed as induction of cell death incubated for 2 days by MTT assay; format: functional, cell-based; details: MCF7, 48 h
[5] = tested on: Bcap37; assay: Cytotoxicity against human Bcap37 cells assessed as induction of cell death incubated for 2 days by MTT assay; format: functional, cell-based; details: Bcap37, 48 h

Compound	pIC50 [1]	pIC50 [2]	pIC50 [3]	pIC50 [4]	pIC50 [5]
C[C@H]1O[C@@H](O[C@H]2CC[C@@]3(C)[C@@H](CC[C@]4(C)[C@@H]3C=C[C@]35OC[C@@]6(CCC(C)(C)C[C@H]63)[C@@H](O)C[C@]54C)[C@]2(C)CO)[C@H](O)[C@@H](O)[C@H]1O	4.88	< 4.30	4.70	4.36	4.76
CO[C@@H]1C=C2[C@@H]3CC(C)(C)CC[C@]3(CO)[C@@H](O)C[C@@]2(C)[C@]2(C)CC[C@H]3[C@](C)(CO)[C@@H](O[C@@H]4O[C@H](C)[C@H](O)[C@H](O)[C@H]4O)CC[C@]3(C)[C@@H]12	4.52	< 4.30	< 4.30	< 4.30	< 4.30
CO[C@@H]1C=C2[C@@H]3CC(C)(C)CC[C@]3(CO)[C@@H](O)C[C@@]2(C)[C@]2(C)CC[C@H]3C(C)(C)[C@@H](O[C@@H]4O[C@H](C)[C@H](O)[C@H](O)[C@H]4O)CC[C@]3(C)[C@@H]12	< 4.30	< 4.30	< 4.30	< 4.30	< 4.30
CC(=O)OC[C@@]1(C)[C@@H]2CC[C@]3(C)[C@H](C=C[C@]45OC[C@@]6(CCC(C)(C)C[C@H]64)[C@@H](O)C[C@]53C)[C@@]2(C)CC[C@@H]1O[C@@H]1O[C@H](C)[C@H](O)[C@H](O)[C@H]1O	5.01	4.47	4.61	4.47	4.59
C[C@H]1O[C@@H](O[C@H]2CC[C@@]3(C)[C@@H](CC[C@]4(C)[C@@H]3C=CC3=C5CC(C)(C)CC[C@]5(CO)C(=O)C[C@]34C)[C@]2(C)CO)[C@H](O)[C@@H](O[C@@H]2O[C@H](CO)[C@@H](O)[C@H](O)[C@H]2O)[C@H]1O	4.40	< 4.30	< 4.30	< 4.30	< 4.30
CO[C@@H]1C=C2C3CC(C)(C)CC[C@]3(CO)[C@H](O)C[C@@]2(C)[C@]2(C)CC[C@H]3[C@](C)(CO)[C@@H](O[C@@H]4O[C@H](C)[C@H](O)[C@H](O[C@@H]5O[C@H](CO)[C@@H](O)[C@H](O)[C@H]5O)[C@H]4O)CC[C@]3(C)[C@@H]12 (stereo partly specified)	< 4.30	< 4.30	< 4.30	< 4.30	< 4.30
C[C@H]1O[C@@H](O[C@H]2CC[C@@]3(C)[C@@H](CC[C@]4(C)[C@@H]3C=C[C@]35OC[C@@]6(CCC(C)(C)C[C@H]63)[C@H](O)C[C@]54C)[C@]2(C)CO)[C@H](O)[C@@H](O)[C@H]1O	5.03	< 4.30	4.69	4.31	4.49
C[C@H]1O[C@@H](O[C@H]2CC[C@@]3(C)[C@@H](CC[C@]4(C)[C@@H]3C=C[C@]35OC[C@@]6(CCC(C)(C)C[C@H]63)[C@H](O)C[C@]54C)[C@]2(C)CO)[C@H](O)[C@@H](O[C@@H]2O[C@H](CO)[C@@H](O)[C@H](O)[C@H]2O)[C@H]1O	5.31	4.51	5.02	5.11	4.97
C[C@H]1O[C@@H](O[C@H]2CC[C@]3(C)[C@H]4C=C[C@]56OC[C@@]7(CCC(C)(C)C[C@H]75)[C@@H](O)C[C@@]6(C)[C@]4(C)CC[C@H]3C2(C)C)[C@H](O)[C@@H](O[C@@H]2O[C@H](CO)[C@@H](O)[C@H](O)[C@H]2O)[C@H]1O	4.69	< 4.30	4.78	4.67	4.81
CC(=O)O[C@H]1[C@H](O[C@H]2[C@@H](O)[C@@H](C)O[C@@H](O[C@H]3CC[C@@]4(C)[C@@H](CC[C@]5(C)[C@@H]4C=C[C@]46OC[C@@]7(CCC(C)(C)C[C@H]74)[C@@H](O)C[C@]65C)[C@]3(C)CO)[C@@H]2O)O[C@H](CO)[C@@H](O)[C@@H]1O	4.70	4.41	5.24	4.52	4.75
CC(=O)O[C@@H]1[C@@H](O)[C@H](O[C@H]2[C@@H](O)[C@@H](C)O[C@@H](O[C@H]3CC[C@@]4(C)[C@@H](CC[C@]5(C)[C@@H]4C=C[C@]46OC[C@@]7(CCC(C)(C)C[C@H]74)[C@@H](O)C[C@]65C)[C@]3(C)CO)[C@@H]2O)O[C@H](CO)[C@H]1O	4.89	4.42	4.86	4.65	4.58
CC(=O)OC[C@H]1O[C@@H](O[C@H]2[C@@H](O)[C@@H](C)O[C@@H](O[C@H]3CC[C@@]4(C)[C@@H](CC[C@]5(C)[C@@H]4C=C[C@]46OC[C@@]7(CCC(C)(C)C[C@H]74)[C@@H](O)C[C@]65C)[C@]3(C)CO)[C@@H]2O)[C@H](O)[C@@H](O)[C@@H]1O	4.68	4.45	4.77	4.44	4.47
CC(=O)OC[C@@]1(C)[C@@H]2CC[C@]3(C)[C@H](C=C[C@]45OC[C@@]6(CCC(C)(C)C[C@H]64)[C@@H](O)C[C@]53C)[C@@]2(C)CC[C@@H]1O[C@@H]1O[C@H](C)[C@H](O)[C@H](O[C@@H]2O[C@H](CO)[C@@H](O)[C@H](O)[C@H]2O)[C@H]1O	< 4.30	< 4.30	< 4.30	< 4.30	< 4.30
C[C@@H]1O[C@@H](O[C@H]2[C@H](O)[C@@H](O)[C@H](O[C@H]3CC[C@]4(C)[C@H]5C=C[C@]67OC[C@@]8(CCC(C)(C)C[C@H]86)[C@@H](O)C[C@@]7(C)[C@]5(C)CC[C@H]4C3(C)C)O[C@@H]2CO[C@@H]2O[C@H](CO)[C@@H](O)[C@H](O)[C@H]2O)[C@H](O)[C@H](O)[C@H]1O	< 4.30	< 4.30	< 4.30	< 4.30	< 4.30
CC(=O)OC[C@H]1O[C@@H](O[C@H]2[C@@H](O)[C@@H](C)O[C@@H](O[C@H]3CC[C@@]4(C)[C@@H](CC[C@]5(C)[C@@H]4C=C[C@]46OC[C@@]7(CCC(C)(C)C[C@H]74)[C@H](O)C[C@]65C)[C@]3(C)CO)[C@@H]2O)[C@H](O)[C@@H](O)[C@@H]1O	5.08	4.82	5.12	5.00	4.75
C[C@H]1O[C@@H](O[C@H]2CC[C@@]3(C)[C@@H](CC[C@]4(C)[C@@H]3C=CC3=C5CC(C)(C)CC[C@]5(CO)[C@H](O)C[C@]34C)[C@]2(C)CO)[C@H](O)[C@@H](O)[C@H]1O	4.72	< 4.30	4.78	4.53	4.42
C[C@H]1O[C@@H](O[C@H]2CC[C@@]3(C)[C@@H](CC[C@]4(C)[C@@H]3C=CC3=C5CC(C)(C)CC[C@]5(CO)[C@@H](O)C[C@]34C)[C@]2(C)CO)[C@H](O)[C@@H](O)[C@H]1O	4.58	< 4.30	4.70	4.38	4.36
C[C@H]1O[C@@H](O[C@H]2CC[C@@]3(C)[C@@H](CC[C@]4(C)[C@@H]3C=CC3=C5CC(C)(C)CC[C@]5(CO)[C@@H](O)C[C@]34C)[C@]2(C)CO)[C@H](O)[C@@H](O[C@@H]2O[C@H](CO)[C@@H](O)[C@H](O)[C@H]2O)[C@H]1O	< 4.30	< 4.30	< 4.30	< 4.30	< 4.30
C[C@H]1O[C@@H](O[C@H]2CC[C@@]3(C)[C@@H](CC[C@]4(C)[C@@H]3C=C[C@]35OC[C@@]6(CCC(C)(C)C[C@H]63)C(=O)C[C@]54C)[C@]2(C)CO)[C@H](O)[C@@H](O[C@@H]2O[C@H](CO)[C@@H](O)[C@H](O)[C@H]2O)[C@H]1O	4.69	4.47	5.11	4.62	4.70
O=c1[nH]cc(F)c(=O)[nH]1 [FLUOROURACIL]			5.82		
C[C@H]1O[C@@H](O[C@H]2CC[C@@]3(C)[C@@H](CC[C@]4(C)[C@@H]3C=C[C@]35OC[C@@]6(CCC(C)(C)C[C@H]63)[C@@H](O)C[C@]54C)[C@]2(C)CO)[C@H](O)[C@@H](O[C@@H]2O[C@H](CO)[C@@H](O)[C@H](O)[C@H]2O)[C@H]1O [SAIKOSAPONIN A]	5.08	4.84	4.89	4.72	4.86
